Reference: patent US8614239B2 (Novartis AG, priority 2009, dated 2013)

How the values were obtained:
A375 cells = assay: Cell viability assay in A375 cells (XTT); format: cell-based; details: XTT read-out three days after compound addition
Protocol: The cell viability assay in A375 cells is set up in a 96-well plate format using XTT. XTT is a yellow tetrazolium salt that is cleaved to an orange formazan dye by the mitochondria of metabolically active cells. The procedure allows for rapid determination in a microtitre plate, to give reproducible and sensitive results.
A375 cells are grown in DMEM media containing 10% FBS and 1 mM sodium pyruvate. Cells are trypsinized and seeded at 1000 cells/well. After allowing the cells to adhere overnight, compound is added to the wells at the following final concentrations: 10, 3, 1, 0.3, 0.1, 0.03, 0.01, 0.001, and 0.0001 μM. The assay is set up in triplicates for each concentration. DMSO concentrations are kept at 0.5%/well. Three days after compound addition, the XTT assay is performed. Wells are washed once with PBS. 100 μL of DMEM media without phenol red or FBS is added to each well. A working solution of XTT containing 1 mg/ml XTT and 100 μL of PMS (stock concentration 0.383 mg/ml) per 5 ml is prepared. 50 μL of the working solution of XTT is added to each well. Absorbance of the plate is read at 465 nm using a Spectramax 190 (Molecular Devices). The absorbance from wells with media and XTT alone, but without cells is considered the blank and subtracted from readings from all wells.
Percentage viability is calculated considering the blank subtracted value from wells treated with DMSO alone as 100% viable. G150 values are calculated using Graphpad Prism, using non-linear regression curve fit for sigmoidal dose response (variable slope).
The cell viability assay is further described in Scudiero, et. al., Cancer Research (1988) 48, 4827-4833; Weislow, et. al., J. Natl. Cancer Institute, (1989) 81, 577-586; and Roehm, et. al., J. Immunol. Methods [1991] 142:257-265.
(§1) The compounds of the above Examples were evaluated as inhibitors of the MAP kinase pathway in a BRAF-MEK-ERK enzymatic cascade assay and in a cell viability assay, the results of which are collated in Table 1 below.

[1] = test system: BRAF (V599E)-MEK1-ERK2 cascade (MAP kinase pathway); assay: BRAF-MEK-ERK enzymatic cascade assay (TR-FRET); format: biochemical, human; details: compound at 10 μM, 45 min pre-incubation with enzymes, 100 μM ATP, 90 min reaction
Description: A BRAF-MEK-ERK cascade assay is used to evaluate the effects of these compounds as inhibitors of the MAP kinase pathway. An enzymatic cascade assay is set up using recombinant human activated BRAF (V599E) kinase (Cat No. 14-557), human full length unactive MEK1 kinase (Cat No. 14-706) and human full length unactive MAP Kinase 2/ERK2 (Cat No. 14-536) enzymes procured from Upstate. TR-FRET (Time resolved fluorescence resonance energy transfer) detection technology is used for the read out. The assay buffer solution contains 50 mM Tris pH 7.5, 10 mM MgCl2, 1 mM DTT, 0.01% Tween 20, 0.1 nM activated BRAF, 2 nM unactive MEK1, 10 nM unactive ERK2, 100 μM ATP and 500 nM long chain biotin-peptide substrate (LCB-FFKNIVTPRTPPP) in a 384 well format. The kinase reaction is stopped after 90 minutes with 10 mM EDTA and Lance detection mix (2 nM Eu-labeled phospho-serine/threonine antibody (Cat. No. AD0176-Perkin Elmer), 20 nM SA-APC (Cat No. CR130-100-Perkin Elmer) is added. The TR-FRET signal (Excitation at 340 nm, Emission at 615 nm and 665 nm) is read with […] on a Victor3 V fluorimeter. The data is calculated using the ratio of readings at 665 nm to 615 nm. The final concentration of DMSO is 2.5% in the assay. Compounds are screened at 10 μM concentration with pre-incubation of the enzymes in the presence of test compound for 45 minutes. […]
These assays described above are fully detailed in Han, Shulin, et. al., Bioorganic & Medicinal Chemistry Letters (2005) 15, 5467-5473, and in Yeh, et. al., Clin Cancer Res (2007) 13 (5), 1576-1583.
as §1

SMILES: O=S(=O)(Nc1c(Nc2ccc(I)cc2F)c(F)c(F)c2ncoc12)C1(CC(O)CO)CC1 (single isomer, unassigned) [Example 1J-isomer 1, N-(4,5-Difluoro-6-(2-fluoro-4-iodophenylamino)benzo[d]oxazol-7-yl)-1-(2,3-dihydroxypropyl)cyclopropane-1-sulfonamide]
- GI50 (A375 cells; listed as 1J-isomer 1): 96 nM
- % inhibition (10 μM) [1]: 99%

SMILES: O=S(=O)(Nc1c(Nc2ccc(I)cc2F)c(F)c(F)c2ncoc12)C1(CC(O)CO)CC1 (single isomer, unassigned) [Example 1J-isomer 2, N-(4,5-Difluoro-6-(2-fluoro-4-iodophenylamino)benzo[d]oxazol-7-yl)-1-(2,3-dihydroxypropyl)cyclopropane-1-sulfonamide]
- GI50 (A375 cells; listed as 1J-isomer 2): 46 nM
- % inhibition (10 μM) [1]: 99%

SMILES: Cc1nc2c(F)c(F)c(Nc3ccc(I)cc3F)c(NS(=O)(=O)N(C)C)c2o1 [Example 1B, Dimethylsulfamic acid [4,5-difluoro-6-(2-fluoro-4-iodo-phenylamino)-2-methyl-benzooxazol-7-yl]-amide]
- GI50 (A375 cells; Homo sapiens, A-375, 72 h): 2010 nM
- % inhibition (10 μM) [1]: 100%

SMILES: CN(C)S(=O)(=O)Nc1c(Nc2ccc(I)cc2F)c(F)c(F)c2ncoc12 [Example 1C, Dimethylsulfamic acid [4,5-difluoro-6-(2-fluoro-4-iodo-phenylamino)-benzooxazol-7-yl]amide]
- GI50 (A375 cells; Homo sapiens, A-375, 72 h): 646 nM
- % inhibition (10 μM) [1]: 100%

SMILES: C=CCC1(S(=O)(=O)Nc2c(Nc3ccc(I)cc3F)c(F)c(F)c3ncoc23)CC1 [Example 1D, 1-Allyl-cyclopropanesulfonic acid [4,5-difluoro-6-(2-fluoro-4-iodo-phenylamino)-benzooxazol-7-yl]-amide]
- GI50 (A375 cells; Homo sapiens, A-375, 72 h): 940 nM
- % inhibition (10 μM) [1]: 100%

SMILES: Cc1nc2c(F)c(F)c(Nc3ccc(I)cc3F)c(NS(=O)(=O)C3CC3)c2o1 [Example 1E, Cyclopropanesulfonic acid [4,5-difluoro-6-(2-fluoro-4-iodo-phenylamino)-2-methyl-benzooxazol-7-yl]amide]
- GI50 (A375 cells; Homo sapiens, A-375, 72 h): 1000 nM
- % inhibition (10 μM) [1]: 93%

SMILES: CN(C)S(=O)(=O)Nc1c(Nc2ccc(Br)cc2F)c(F)c(F)c2ncoc12 [Example 1F, Dimethylsulfamic acid [4,5-difluoro-6-(2-fluoro-4-bromo-phenylamino)-benzooxazol-7-yl]-amide]
- GI50 (A375 cells; Homo sapiens, A-375, 72 h): 2370 nM
- % inhibition (10 μM) [1]: 99%

SMILES: O=S(=O)(Nc1c(Nc2ccc(Br)cc2F)c(F)c(F)c2ncoc12)C1CC1 [Example 1G]
- GI50 (A375 cells; Homo sapiens, A-375, 72 h): > 10000 nM
- % inhibition (10 μM) [1]: 92%

SMILES: Cc1nc2c(F)c(F)c(Nc3ccc(Br)cc3F)c(NS(=O)(=O)C3CC3)c2o1 [Example 1H, Cyclopropanesulfonic acid [6-(4-bromo-2-fluoro-phenylamino)-4,5-difluoro-2-methyl-benzooxazol-7-yl]-amide]
- % inhibition (10 μM) [1]: 10%

SMILES: O=S(=O)(Nc1c(Nc2ccc(I)cc2F)c(F)c(F)c2ncoc12)C1(CC(O)CO)CC1 (centres unmarked) [Example 1I, 1-(2,3-Dihydroxy-propyl)-cyclopropanesulfonic acid [4,5-difluoro-6-(2-fluoro-4-iodo-phenylamino)-benzooxazol-7-yl]-amide]
- GI50 (A375 cells; Homo sapiens, A-375, 72 h): 47 nM
- % inhibition (10 μM) [1]: 100%

SMILES: O=S(=O)(Nc1c(Nc2ccc(I)cc2F)c(F)c(F)c2ncoc12)C1CC1COCc1ccccc1 (centres unmarked) [Example 1K, 2-(Benzyloxymethyl)-N-(4,5-difluoro-6-(2-fluoro-4-iodophenylamino)benzo[d]oxazol-7-yl)cyclopropane-1-sulfonamide]
- GI50 (A375 cells; Homo sapiens, A-375, 72 h): 5700 nM
- % inhibition (10 μM) [1]: 100%

SMILES: O=S(=O)(Nc1c(Nc2ccc(I)cc2F)c(F)c(F)c2ncoc12)C1CC1CO (centres unmarked) [Example 1L, N-(4,5-Difluoro-6-(2-fluoro-4-iodophenylamino)benzo[d]oxazol-7-yl)-2-(hydroxymethyl)cyclopropane-1-sulfonamide]
- GI50 (A375 cells; Homo sapiens, A-375, 72 h): 2700 nM
- % inhibition (10 μM) [1]: 99%

SMILES: O=S(=O)(Nc1c(Nc2ccc(I)cc2F)c(F)c(F)c2ncoc12)C1(COCc2ccccc2)CC1 [Example 1M, 1-(Benzyloxymethyl)-N-(4,5-difluoro-6-(2-fluoro-4-iodophenylamino)benzo[d]oxazol-7-yl)cyclopropane-1-sulfonamide]
- GI50 (A375 cells; Homo sapiens, A-375, 72 h): 3550 nM
- % inhibition (10 μM) [1]: 95%

SMILES: O=S(=O)(Nc1c(Nc2ccc(I)cc2F)c(F)c(F)c2ncoc12)C1(CO)CC1 [Example 1N, N-(4,5-Difluoro-6-(2-fluoro-4-iodophenylamino)benzo[d]oxazol-7-yl)-1-(hydroxymethyl)cyclopropane-1-sulfonamide]
- GI50 (A375 cells; Homo sapiens, A-375, 72 h): 186 nM
- % inhibition (10 μM) [1]: 100%

SMILES: O=S(=O)(Nc1c(Nc2ccc(I)cc2F)c(F)c(F)c2ccoc12)C1CC1 [Example 2A, Cyclopropane sulfonic acid [4,5-difluoro-6-(2-fluoro-4-iodo-phenylamino)-benzofuran-7-yl]amide]
- GI50 (A375 cells; Homo sapiens, A-375, 72 h): 29 nM
- % inhibition (10 μM) [1]: 99%

SMILES: O=S(=O)(Nc1c(Nc2ccc(I)cc2F)c(F)c(F)c2ccoc12)C1(CC(O)CO)CC1 (centres unmarked) [Example 2B, 1-(2,3-Dihydroxy-propyl)-cyclopropanesulfonic acid [4,5-difluoro-6-(2-fluoro-4-iodo-phenylamino)-benzofuran-7-yl]amide]
- GI50 (A375 cells; Homo sapiens, A-375, 72 h): 17 nM
- % inhibition (10 μM) [1]: 100%

SMILES: O=S(=O)(Nc1c(Nc2ccc(I)cc2F)c(F)c(F)c2ccoc12)C1(CCO)CC1 [Example 2C, 1-(2-Hydroxy-ethyl)-cyclopropanesulfonic acid [4,5-difluoro-6-(2-fluoro-4-iodo-phenylamino)-benzofuran-7-yl]amide]
- GI50 (A375 cells; Homo sapiens, A-375, 72 h): 12 nM
- % inhibition (10 μM) [1]: 100%

SMILES: O=S(=O)(Nc1c(Nc2ccc(I)cc2F)c(F)c(F)c2ccoc12)C1CC1CO (centres unmarked) [Example 2D, 2-Hydroxymethyl-cyclopropanesulfonic acid [4,5-difluoro-6-(2-fluoro-4-iodo-phenylamino)-benzofuran-7-yl]-amide]
- GI50 (A375 cells; Homo sapiens, A-375, 72 h): 119 nM
- % inhibition (10 μM) [1]: 99%
